The source of these data is paper PMC3501123 (Journal of medicinal chemistry, 2012).

Bounds are passed on as bounds.

The target in series [1] is T1, human A1AR (Homo sapiens, UniProt P30542).
T1 sequence (P30542 1-326): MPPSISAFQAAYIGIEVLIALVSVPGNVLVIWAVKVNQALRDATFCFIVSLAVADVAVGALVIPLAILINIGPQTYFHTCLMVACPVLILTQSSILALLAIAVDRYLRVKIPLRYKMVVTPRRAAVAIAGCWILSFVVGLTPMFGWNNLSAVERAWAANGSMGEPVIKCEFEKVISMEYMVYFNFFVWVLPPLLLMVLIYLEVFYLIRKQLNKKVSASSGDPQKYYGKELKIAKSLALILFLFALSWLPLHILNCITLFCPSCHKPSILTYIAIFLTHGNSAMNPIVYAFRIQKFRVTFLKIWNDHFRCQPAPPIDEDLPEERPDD
Nature of the series: cAMP accumulation assay. Format: cell-based. To be noted: for agonist efficacy in cAMP accumulation assay: compared to compound 3, highest concentration tested; for effect of αβ-met-ADP on potency: inclusion of 10 μM αβ-met-ADP (NT5E/CD73 inhibitor).

A further series deals with T2, human A3AR (Homo sapiens, UniProt P0DMS8).
T2 sequence (P0DMS8 1-318): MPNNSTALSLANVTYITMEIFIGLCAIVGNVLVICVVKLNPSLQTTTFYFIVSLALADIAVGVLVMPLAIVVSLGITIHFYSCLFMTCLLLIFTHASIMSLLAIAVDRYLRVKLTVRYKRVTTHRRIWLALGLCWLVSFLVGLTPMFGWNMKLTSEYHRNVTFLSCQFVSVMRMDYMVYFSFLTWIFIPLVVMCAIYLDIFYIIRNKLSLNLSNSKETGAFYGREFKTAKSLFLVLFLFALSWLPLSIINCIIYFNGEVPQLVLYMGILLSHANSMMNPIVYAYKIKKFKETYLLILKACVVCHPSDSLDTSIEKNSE
Description: radioligand binding assay.

The target in the next series is human A2AAR (Homo sapiens, UniProt P29274). Description: radioligand binding assay.
Series [2] deals with T1, human A1AR. Description: Ca2+ mobilization assay with chimeric G proteins. Format: cell-based. The following applies: Emax normalized to Emax of adenosine.
For series [3], the system named is C57BL/6 mice. Description: telemetry of heart rate and body temperature. The format is in vivo, mouse. To be noted: 5000 nmol/kg, oral.
Series [4] has as its system C57BL/6 mice. Nature of the series: noxious thermal sensitivity, Hargreaves paw withdrawal latency. Format: in vivo, mouse.
In another series the target is T3, human A2BAR (Homo sapiens, UniProt P29275).
T3 sequence (P29275 1-332): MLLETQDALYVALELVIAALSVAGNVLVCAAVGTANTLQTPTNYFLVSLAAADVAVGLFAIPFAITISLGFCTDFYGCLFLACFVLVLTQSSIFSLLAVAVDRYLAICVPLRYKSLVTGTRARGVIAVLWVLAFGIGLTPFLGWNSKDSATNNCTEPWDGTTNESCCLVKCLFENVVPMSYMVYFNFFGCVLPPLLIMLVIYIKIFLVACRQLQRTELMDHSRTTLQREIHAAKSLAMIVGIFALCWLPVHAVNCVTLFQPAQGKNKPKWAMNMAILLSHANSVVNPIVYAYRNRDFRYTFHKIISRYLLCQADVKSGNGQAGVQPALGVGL
Description: radioligand binding assay. To be noted: read-out: % inhibition at A2B, 50 μM.

The mark [5] stands for this setting: oral, 50, 500 or 5000 nmol/kg, wild-type mice.

Chain of human A2AAR (P29274 whole entry): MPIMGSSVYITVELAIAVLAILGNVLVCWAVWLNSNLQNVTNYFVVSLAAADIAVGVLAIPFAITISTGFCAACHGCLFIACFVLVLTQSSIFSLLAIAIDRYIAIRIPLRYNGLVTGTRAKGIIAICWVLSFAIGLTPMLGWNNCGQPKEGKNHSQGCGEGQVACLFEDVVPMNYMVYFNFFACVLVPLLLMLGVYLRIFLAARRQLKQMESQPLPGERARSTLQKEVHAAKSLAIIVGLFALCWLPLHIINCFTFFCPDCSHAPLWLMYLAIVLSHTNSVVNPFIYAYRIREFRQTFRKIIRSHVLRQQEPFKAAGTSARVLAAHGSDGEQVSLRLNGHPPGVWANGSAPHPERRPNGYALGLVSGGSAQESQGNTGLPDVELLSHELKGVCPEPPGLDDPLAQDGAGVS

On to `Nc1ncnc2c1ncn2[C@@H]1O[C@H](CO)[C@@H](O)[C@H]1OP(=O)(O)O` [2′-AMP, adenosine 2′-monophosphate], for which, on human A1AR [1], the “agonist efficacy in cAMP accumulation assay” value is recorded as “full agonists” and the “effect of αβ-met-ADP on potency” value is “did not significantly alter the potencies”.

As to `O=P([O-])([O-])OC[C@H]1O[C@@H](n2cnc3c(NC4CCCC4)nc(Cl)nc32)[C@H](O)[C@@H]1O.[Na+].[Na+]` [Compound 3d, Sodium ((2R,3S,4R,5R)-5-(2-Chloro-6-(cyclopentylamino)-9H-purin-9-yl)-3,4-dihydroxytetrahydrofuran-2-yl)methyl Phosphate], the “selectivity for A1AR over A3AR” value on human A3AR is more than 10 fold. The “selectivity for A1AR over A2AAR” value on human A2AAR was more than 100 fold. The “agonist efficacy in Ca2+ mobilization assay” value at human A1AR [2] is listed as “potent full agonists”.

Regarding `Nc1ncnc2c1ncn2[C@@H]1O[C@H](CO)[C@@H](OP(=O)(O)O)[C@H]1O` [3′-AMP, adenosine 3′-monophosphate], on human A1AR [1], the “agonist efficacy in cAMP accumulation assay” value is recorded as “full agonists” and the “effect of αβ-met-ADP on potency” value is given as “did not significantly alter the potencies”.

Regarding `OC[C@H]1O[C@@H](n2cnc3c(NC4CCCC4)ncnc32)[C@H](O)[C@@H]1O` [Compound 5, N^6-cyclopentyl adenosine, reference compound], in the series on C57BL/6 mice [3] (A1AR–/– mice), the “effect on body temperature” value was “but not in A1AR^–/– mice” and the “effect on heart rate” value is reported as “modest increase in heart rate”. In addition, in the series on C57BL/6 mice [3] (wild-type mice), the “effect on body temperature” value is listed as “statistically significant decrease” and the “effect on heart rate” value was “statistically significant decrease”. Further, the “effect on noxious thermal sensitivity” value with C57BL/6 mice [4] (setting [5]) is on record as “effects of 3a were similar to 5”.

On to `COP(=O)(OC)OC[C@H]1O[C@@H](n2cnc3c(NC4CCCC4)nc(Cl)nc32)[C@H](O)[C@@H]1O` [Compound 3a, ((2R,3S,4R,5R)-5-(2-Chloro-6-(cyclopentylamino)-9H-purin-9-yl)-3,4-dihydroxytetrahydrofuran-2-yl)methyl Dimethyl Phosphate], for which the “selectivity for A1AR over A3AR” value at human A3AR is given as more than 10 fold. Besides, the inhibition at 50 µM at human A2BAR was less than 10%. Further, at human A2AAR, the “selectivity for A1AR over A2AAR” value was more than 100 fold. Further, the “effect on body temperature” value in the series with C57BL/6 mice [3] (A1AR–/– mice) and in the series on C57BL/6 mice [3] (wild-type mice) was “negligible effects” throughout. Besides, the “effect on heart rate” value with C57BL/6 mice [3] (A1AR–/– mice) and in the series with C57BL/6 mice [3] (wild-type mice) was “negligible effects” each time. For the same compound, the “agonist efficacy in cAMP accumulation assay” value on human A1AR [1] is listed as “full agonist”. Besides, the “thermal antinociceptive effect in A1AR knockout mice” value with C57BL/6 mice [4] (A1AR–/– mice, 5 nmol, IT injection) was “completely abolished”. Moreover, the “effect on noxious thermal sensitivity” value with C57BL/6 mice [4] (intrathecal (IT) or intravenous (IV) injection, mice) was “marked and dose-dependent inhibition of noxious thermal sensitivity”; with C57BL/6 mice [4] (setting [5]), “dose-dependently inhibited noxious thermal sensitivity”. Moreover, the “agonist efficacy in Ca2+ mobilization assay” value at human A1AR [2] is “potent full agonists”.
